Data from article PMC7093416, “Selective USP7 inhibition elicits cancer cell killing through a p53-dependent mechanism” (Scientific Reports, 2020).
“And” between values parts separate entries of the source, which are not always exact repeats. Identical values can stand only once.

System: panel of 484 cancer cell lines
Assay: PRISM cancer cell line profiling, 5 days
Assay type: cell-based
Parameters: Viability: scale not given here; AUC: unit not given beside the values
Protocol: Cancer cell line profiling was performed using the Broad’s PRISM platform. Cell treatment and data analysis were performed as described in Yu et al[42]. Raw Luminex signal was converted to AUC values for each cell line as described. The resulting AUC profile for each compound was modeled against DepMap using the limma package in R[71]. Because hotspot mutation analysis was performed against DepMap, TP53 annotations in Fig. 6c,d are directly from DepMap.

[1] = CAL12T_LUNG, pert_dose 6.10E-04
[2] = CAL27_UPPER_AERODIGESTIVE_TRACT, pert_dose 6.10E-04
[3] = CAL29_URINARY_TRACT, pert_dose 6.10E-04

## COc1ccc(C2=N[C@@H](c3ccc(Cl)cc3)[C@@H](c3ccc(Cl)cc3)N2C(=O)N2CCNC(=O)C2)c(OC(C)C)c1 [Nutlin-3A]
CAKI1_KIDNEY, pert_dose 6.10E-04
  Viability: 1.281
CAL12T_LUNG
  AUC: 1.284
[1]
  MFI CAL12T_LUNG: 11558 and 13284 and 9249.5 and 12951.5 and 13183
  Viability: 1.338
CAL27_UPPER_AERODIGESTIVE_TRACT
  AUC: 1.085
[2]
  MFI CAL27_UPPER_AERODIGESTIVE_TRACT: 20059.5 and 19151.5 and 25415 and 19627.5 and 22725.5
  Viability: 1.031
CAL29_URINARY_TRACT
  AUC: 1.177
[3]
  MFI CAL29_URINARY_TRACT: 9011 and 8957 and 10277.5 and 8231.5 and 10904
  Viability: 1.551
CAL51_BREAST
  AUC: 1.0736
CAL51_BREAST, pert_dose 6.10E-04
  MFI CAL51_BREAST: 12828 and 10989 and 10227 and 16366 and 8548.5
CAL54_KIDNEY
  AUC: 1.148
CAL54_KIDNEY, pert_dose 6.10E-04
  Viability: 1.061
CAL62_THYROID
  AUC: 1.139
CAL62_THYROID, pert_dose 6.10E-04
  MFI CAL62_THYROID: 19352 and 23281.5 and 23347 and 21690 and 18079
CAL78_BONE
  AUC: 1.142
CAL120_BREAST
  AUC: 1.092
CAL120_BREAST, pert_dose 6.10E-04
  MFI CAL120_BREAST: 15064 and 12880 and 13041 and 15017 and 12012.5
CALU1_LUNG
  AUC: 0.9872
CALU6_LUNG
  AUC: 1.11
CALU6_LUNG, pert_dose 6.10E-04
  MFI CALU6_LUNG: 19804 and 26726 and 21267 and 25781.5 and 28928.5
CAMA1_BREAST
  AUC: 1.153
CAMA1_BREAST, pert_dose 6.10E-04
  MFI CAMA1_BREAST: 1412 and 1959.5 and 1768 and 1670.5 and 1819.5
CAOV3_OVARY
  AUC: 1.212
CAOV3_OVARY, pert_dose 6.10E-04
  MFI CAOV3_OVARY: 4238 and 2774 and 4113 and 2696.5 and 4069
CAPAN2_PANCREAS
  AUC: 1.279
CCFSTTG1_CENTRAL_NERVOUS_SYSTEM
  AUC: 0.9997
CCFSTTG1_CENTRAL_NERVOUS_SYSTEM, pert_dose 6.10E-04
  MFI CCFSTTG1_CENTRAL_NERVOUS_SYSTEM: 2625 and 1957.5 and 2163 and 2860 and 1678.5
CFPAC1_PANCREAS
  AUC: 1.133
CFPAC1_PANCREAS, pert_dose 6.10E-04
  MFI CFPAC1_PANCREAS: 12988 and 12890.5 and 8831 and 16982.5 and 13585.5
CHL1_SKIN
  AUC: 1.101
CHL1_SKIN, pert_dose 6.10E-04
  MFI CHL1_SKIN: 25277 and 22527.5 and 16250 and 20018.5 and 22530
CJM_SKIN
  AUC: 1.181
CJM_SKIN, pert_dose 6.10E-04
  MFI CJM_SKIN: 9757.5 and 5484 and 9139.5 and 7090.5 and 8423
CL34_LARGE_INTESTINE
  AUC: 1.025
CL34_LARGE_INTESTINE, pert_dose 6.10E-04
  MFI CL34_LARGE_INTESTINE: 3669 and 4269 and 5343.5 and 2751 and 2702
COLO668_LUNG
  AUC: 1.1
COLO679_SKIN
  AUC: 0.88
COLO679_SKIN, pert_dose 6.10E-04
  MFI COLO679_SKIN: 6568.5 and 8262 and 8427 and 10413 and 7461
COLO680N_OESOPHAGUS
  AUC: 1.159
COLO680N_OESOPHAGUS, pert_dose 6.10E-04
  MFI COLO680N_OESOPHAGUS: 5933.5 and 4468 and 6131 and 5620 and 4657
COLO741_SKIN
  AUC: 1.078
COLO741_SKIN, pert_dose 6.10E-04
  MFI COLO741_SKIN: 3302 and 2497 and 3485 and 3755 and 2923
COLO783_SKIN
  AUC: 1.125
COLO783_SKIN, pert_dose 6.10E-04
  MFI COLO783_SKIN: 9292.5 and 11134.5 and 11660 and 10125 and 10684
COLO792_SKIN
  AUC: 0.8537
COLO792_SKIN, pert_dose 6.10E-04
  MFI COLO792_SKIN: 5216 and 3883.5 and 6906 and 3698 and 6181
COLO800_SKIN
  AUC: 0.9456
COLO800_SKIN, pert_dose 6.10E-04
  MFI COLO800_SKIN: 9562 and 9966.5 and 9539 and 8965 and 10824
CORL23_LUNG
  AUC: 1.082
CORL23_LUNG, pert_dose 6.10E-04
  MFI CORL23_LUNG: 18251 and 21912.5 and 23721 and 22738.5 and 19507.5
CORL105_LUNG
  AUC: 0.9293
CORL105_LUNG, pert_dose 6.10E-04
  MFI CORL105_LUNG: 3831.5 and 2259.5 and 3159 and 2363.5 and 2088.5
COV362_OVARY
  AUC: 1.112
COV362_OVARY, pert_dose 6.10E-04
  MFI COV362_OVARY: 17061 and 16771 and 18006 and 14276 and 17716.5
COV434_OVARY
  AUC: 0.499
COV434_OVARY, pert_dose 6.10E-04
  MFI COV434_OVARY: 2287 and 4116 and 4254.5 and 3247 and 3013
DANG_PANCREAS
  AUC: 1.183
DANG_PANCREAS, pert_dose 6.10E-04
  MFI DANG_PANCREAS: 3936.5 and 2389 and 3329.5 and 4098 and 2374
DAOY_CENTRAL_NERVOUS_SYSTEM
  AUC: 1.063
DAOY_CENTRAL_NERVOUS_SYSTEM, pert_dose 6.10E-04
  MFI DAOY_CENTRAL_NERVOUS_SYSTEM: 3341 and 3770 and 5391 and 3660 and 5169
DBTRG05MG_CENTRAL_NERVOUS_SYSTEM
  AUC: 0.8565
DBTRG05MG_CENTRAL_NERVOUS_SYSTEM, pert_dose 6.10E-04
  MFI DBTRG05MG_CENTRAL_NERVOUS_SYSTEM: 9502 and 12025.5 and 11037.5 and 11248 and 13043
DETROIT562_UPPER_AERODIGESTIVE_TRACT
  AUC: 1.165
DETROIT562_UPPER_AERODIGESTIVE_TRACT, pert_dose 6.10E-04
  MFI DETROIT562_UPPER_AERODIGESTIVE_TRACT: 11765 and 10497.5 and 16246.5 and 13989 and 13619
DKMG_CENTRAL_NERVOUS_SYSTEM
  AUC: 0.8274
DMS273_LUNG
  AUC: 1.073
DMS273_LUNG, pert_dose 6.10E-04
  MFI DMS273_LUNG: 11114.5 and 10196.5 and 9771 and 10022 and 13797
DU145_PROSTATE
  AUC: 1.079
DU145_PROSTATE, pert_dose 6.10E-04
  MFI DU145_PROSTATE: 21126.5 and 23687 and 17071 and 16938.5 and 18848
DV90_LUNG
  AUC: 0.8353
DV90_LUNG, pert_dose 6.10E-04
  MFI DV90_LUNG: 7893 and 6981 and 9620.5 and 7167 and 6096.5
DepMap TP53 mutation annotation
  ∆ (AUC, TP53 mutation vs WT; decreased sensitivity): 0.0919
EBC1_LUNG
  AUC: 1.0742
EBC1_LUNG, pert_dose 6.10E-04
  MFI EBC1_LUNG: 12931 and 11768 and 13134.5 and 11101.5 and 10612
ECGI10_OESOPHAGUS
  AUC: 1.177
EFM192A_BREAST
  AUC: 1.203
EFO21_OVARY
  AUC: 1.106
EFO21_OVARY, pert_dose 6.10E-04
  MFI EFO21_OVARY: 6907 and 7302 and 6854 and 7260 and 4429
EFO27_OVARY
  AUC: 1.1574
EFO27_OVARY, pert_dose 6.10E-04
  MFI EFO27_OVARY: 9100.5 and 10537 and 7873 and 14276 and 9706
EN_ENDOMETRIUM
  AUC: 1.075
ES2_OVARY
  AUC: 1.089
ES2_OVARY, pert_dose 6.10E-04
  MFI ES2_OVARY: 18459 and 23432 and 12997.5 and 16216 and 13403
ESS1_ENDOMETRIUM
  AUC: 1.129
ESS1_ENDOMETRIUM, pert_dose 6.10E-04
  MFI ESS1_ENDOMETRIUM: 2916 and 2399 and 2841.5 and 2277 and 1505
EWS502_BONE
  AUC: 1.109
EWS502_BONE, pert_dose 6.10E-04
  MFI EWS502_BONE: 3099 and 3510.5 and 2209 and 3124 and 3278.5
FADU_UPPER_AERODIGESTIVE_TRACT
  AUC: 1.169
FADU_UPPER_AERODIGESTIVE_TRACT, pert_dose 6.10E-04
  MFI FADU_UPPER_AERODIGESTIVE_TRACT: 3959.5 and 4203 and 5203 and 4740.5 and 7313
FTC133_THYROID
  AUC: 1.156
